Data as given in patent USRE48461E1, “Modulation of androgen receptor expression” (Ionis Pharmaceuticals, Inc., priority 2012, dated 2021).
Oligonucleotides are written 5' to 3', each unit as a sugar letter and its base; * is a phosphorothioate linkage, no mark a phosphodiester; rarer units and linkages stand in square brackets, end groups in braces. Plain capitals give the bases only. k = constrained ethyl (cEt); [5mC] = 5-methylcytosine; d = 2'-deoxy (DNA)

Assays:
AR mRNA [1] = test: Dose-dependent antisense inhibition of human AR in HuVEC cells (electroporation, qRT-PCR RTS3559, IC50); type: cell-based; settings: HuVEC, electroporation, approximately 16 hours
Outline: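 HuVEC cells dosed with antisense oligonucleotides by electroporation and treated approximately 16 hours. AR mRNA quantified by real-time qPCR with primer probe set RTS3559 and normalised to total RNA by RIBOGREEN; IC50 from dose-response.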

AR mRNA [2] = test: Antisense inhibition of human AR in HuVEC cells, single concentration (electroporation, qRT-PCR RTS3559); type: cell-based
Outline: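 HuVEC cells electroporated with antisense oligonucleotides at a single concentration. AR mRNA quantified by qRT-PCR using human primer-probe set RTS3559 and normalised to total RNA content by RIBOGREEN.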

[3] = Table 20, 500 nM oligonucleotide, electroporation, approximately 24 hours, relative to untreated control
[4] = Table 22, 500 nM oligonucleotide, electroporation, approximately 24 hours, relative to untreated control

**Q.** “583871 (kA*kT*kA*d[5mC]*dT*d[5mC]*dA*dG*d[5mC]*dA*dG*dT*dA*kT*k[5mC]*kT; antisense) [compound 583871]” was tested. Which “percent inhibition of AR, 46.9 nM” value (AR mRNA [1]; Table 32) did it give?
**A.** 28%

**Q.** And the “percent inhibition of AR, 187.5 nM” value (AR mRNA [1]; Table 32)?
**A.** 30%

**Q.** And the “percent inhibition of AR, 750.0 nM” value (AR mRNA [1]; Table 32)?
**A.** 68%

**Q.** And the “percent inhibition of AR, 3000.0 nM” value (AR mRNA [1]; Table 32)?
**A.** 87%

**Q.** What about the IC50 (AR mRNA [1]; Table 32) of the same substance?
**A.** 0.28 µM

**Q.** And the “% inhibition” value (AR mRNA [2]; [3])?
**A.** 47%

**Q.** “584138 (k[5mC]*kG*k[5mC]*dG*d[5mC]*dA*dG*dG*dT*dA*dG*dG*dA*kG*k[5mC]*k[5mC]; antisense) [compound 584138]” was tested. Which “percent inhibition of AR, 46.9 nM” value (AR mRNA [1]; Table 35) did it give?
**A.** 2%

**Q.** And the “percent inhibition of AR, 187.5 nM” value (AR mRNA [1]; Table 35)?
**A.** 40%

**Q.** What about the “percent inhibition of AR, 750.0 nM” value (AR mRNA [1]; Table 35) of the same substance?
**A.** 62%

**Q.** What about the “percent inhibition of AR, 3000.0 nM” value (AR mRNA [1]; Table 35) of the same substance?
**A.** 89%

**Q.** What about the IC50 (AR mRNA [1]; Table 35) of the same substance?
**A.** 0.37 µM

**Q.** And the “% inhibition” value (AR mRNA [2]; Table 23, 500 nM oligonucleotide, electroporation, approximately 24 hours, relative to untreated control)?
**A.** 35%

**Q.** Which results are given for “583851 (kG*kT*kG*dG*dG*dA*d[5mC]*dG*d[5mC]*dA*d[5mC]*dA*dG*k[5mC]*kG*kG; antisense) [compound 583851]”?
**A.** percent inhibition of AR, 46.9 nM (AR mRNA [1]; Table 33): 8%; percent inhibition of AR, 187.5 nM (AR mRNA [1]; Table 33): 24%; percent inhibition of AR, 750.0 nM (AR mRNA [1]; Table 33): 54%; percent inhibition of AR, 3000.0 nM (AR mRNA [1]; Table 33): 76%; IC50 (AR mRNA [1]; Table 33): 0.61 µM; % inhibition (AR mRNA [2]; [3]): 33%

**Q.** What does the source list for “583712 (antisense k[5mC]*k[5mC]*kT*dT*dG*dA*dG*d[5mC]*dT*dT*dG*dG*d[5mC]*kT*kG*kA) [compound 583712]”?
**A.** percent inhibition of AR, 46.9 nM (AR mRNA [1]; Table 30): 15%; percent inhibition of AR, 187.5 nM (AR mRNA [1]; Table 30): 47%; percent inhibition of AR, 750.0 nM (AR mRNA [1]; Table 30): 72%; percent inhibition of AR, 3000.0 nM (AR mRNA [1]; Table 30): 78%; IC50 (AR mRNA [1]; Table 30): 0.29 µM; % inhibition (AR mRNA [2]; 500 nM ASO, ~24 h, Table 18): 37%

**Q.** What does the source list for “584002 (k[5mC]*kT*kG*d[5mC]*dT*d[5mC]*dA*d[5mC]*d[5mC]*dA*dT*dG*d[5mC]*k[5mC]*kG*k[5mC]; antisense) [compound 584002]”?
**A.** percent inhibition of AR, 46.9 nM (AR mRNA [1]; Table 34): 12%; percent inhibition of AR, 187.5 nM (AR mRNA [1]; Table 34): 46%; percent inhibition of AR, 750.0 nM (AR mRNA [1]; Table 34): 70%; percent inhibition of AR, 3000.0 nM (AR mRNA [1]; Table 34): 92%; IC50 (AR mRNA [1]; Table 34): 0.25 µM; % inhibition (AR mRNA [2]; [4]): 30%

**Q.** How did the “percent inhibition of AR, 46.9 nM” value (AR mRNA [1]; Table 36) turn out when “584233 (kG*kG*kA*dT*dT*d[5mC]*dT*d[5mC]*dT*dA*d[5mC]*dA*d[5mC]*kA*k[5mC]*kA; antisense) [compound 584233]” was run?
**A.** 0%

**Q.** And the “percent inhibition of AR, 187.5 nM” value (AR mRNA [1]; Table 36)?
**A.** 30%

**Q.** What about the “percent inhibition of AR, 750.0 nM” value (AR mRNA [1]; Table 36) of the same substance?
**A.** 66%

**Q.** And the “percent inhibition of AR, 3000.0 nM” value (AR mRNA [1]; Table 36)?
**A.** 86%

**Q.** And the IC50 (AR mRNA [1]; Table 36)?
**A.** 0.39 µM

**Q.** And the “% inhibition” value (AR mRNA [2]; Table 25, 1,000 nM oligonucleotide, electroporation, approximately 24 hours, relative to untreated control)?
**A.** 62%

**Q.** Which “percent inhibition of AR, 46.9 nM” value (AR mRNA [1]; Table 34) does the source give for “583990 (kA*k[5mC]*kA*d[5mC]*dA*dT*d[5mC]*dA*dG*dG*dT*dG*d[5mC]*kG*kG*kT; antisense) [compound 583990]” here?
**A.** 0%

**Q.** And the “percent inhibition of AR, 187.5 nM” value (AR mRNA [1]; Table 34)?
**A.** 9%

**Q.** And the “percent inhibition of AR, 750.0 nM” value (AR mRNA [1]; Table 34)?
**A.** 33%

**Q.** What about the “percent inhibition of AR, 3000.0 nM” value (AR mRNA [1]; Table 34) of the same substance?
**A.** 56%

**Q.** What about the IC50 (AR mRNA [1]; Table 34) of the same substance?
**A.** 1.92 µM

**Q.** And the “% inhibition” value (AR mRNA [2]; [4])?
**A.** 30%

**Q.** Which “percent inhibition of AR, 46.9 nM” value (AR mRNA [1]; Table 30) does the source give for “583745 (antisense k[5mC]*kG*k[5mC]*dT*d[5mC]*dG*d[5mC]*dG*dG*d[5mC]*d[5mC]*dT*d[5mC]*kT*kG*kG) [compound 583745]” here?
**A.** 19%

**Q.** What about the “percent inhibition of AR, 187.5 nM” value (AR mRNA [1]; Table 30) of the same substance?
**A.** 51%

**Q.** And the “percent inhibition of AR, 750.0 nM” value (AR mRNA [1]; Table 30)?
**A.** 68%

**Q.** And the “percent inhibition of AR, 3000.0 nM” value (AR mRNA [1]; Table 30)?
**A.** 77%

**Q.** And the IC50 (AR mRNA [1]; Table 30)?
**A.** 0.27 µM

**Q.** What about the “% inhibition” value (AR mRNA [2]; 500 nM ASO, ~24 h, Table 18) of the same substance?
**A.** 40%

**Q.** How did the “percent inhibition of AR, 46.9 nM” value (AR mRNA [1]; Table 29) turn out when “583559 (antisense kA*kG*kT*d[5mC]*dT*dT*dT*dA*dG*d[5mC]*dA*dG*d[5mC]*kT*kT*kT) [compound 583559]” was run?
**A.** 30%

**Q.** And the “percent inhibition of AR, 187.5 nM” value (AR mRNA [1]; Table 29)?
**A.** 49%

**Q.** And the “percent inhibition of AR, 750.0 nM” value (AR mRNA [1]; Table 29)?
**A.** 63%

**Q.** And the “percent inhibition of AR, 3000.0 nM” value (AR mRNA [1]; Table 29)?
**A.** 80%

**Q.** What about the IC50 (AR mRNA [1]; Table 29) of the same substance?
**A.** 0.22 µM

**Q.** What about the “% inhibition” value (AR mRNA [2]; 500 nM ASO, ~24 h, Table 16) of the same substance?
**A.** 52%
